The text below walks through data of patent publication US12116358B2, “Substituted indoles and methods of use thereof” (EPIZYME, INC., priority 2018, dated 2024).

The structures appear in SMILES notation. Read-outs that look alike come from different tables or passages of the source. Where only a bound is given, the exact number is not on record here.

For one experiment, the target named is T1, SETD2(1434-1711) (Homo sapiens, UniProt Q9BYW2).
T1 construct: SETD2 (1434-1711) Assay; catalogue N/A
T1 sequence (Q9BYW2 1434-1711): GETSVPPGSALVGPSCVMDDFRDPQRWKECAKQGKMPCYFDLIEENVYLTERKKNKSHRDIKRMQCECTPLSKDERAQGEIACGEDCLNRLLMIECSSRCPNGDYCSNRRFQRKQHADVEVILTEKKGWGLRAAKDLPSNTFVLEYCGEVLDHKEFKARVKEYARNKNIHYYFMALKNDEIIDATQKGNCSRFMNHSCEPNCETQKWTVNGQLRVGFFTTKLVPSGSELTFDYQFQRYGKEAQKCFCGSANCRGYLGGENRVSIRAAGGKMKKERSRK
As to the kind of experiment: SETD2 (1434-1711) assay. Type of experiment: biochemical. Particulars: read-out: SETD2 (1434-1711).

A further experiment has as its system H3K36me3 in A549 cells. The experiment in a line: In-Cell Western (ICW) assay of SETD2 inhibitors (A549 assay). It is filed as cell-based, human. Particulars: A549 cells, read-out: SETD2 A549. Put shortly: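 A549 cells seeded at 4,000/well onto compound and incubated 3 days at 37° C. Methanol-fixed cells stained overnight at 4° C with anti-H3K36me3 (1:1000), then IRDye 800CW secondary with DRAQ5 DNA counterstain. Plates read by Licor imaging at 700 and 800 channels.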

For `Cc1ccc(F)c2cc(C(=O)NC3CCCC(N4CCn5ccnc5C4)C3)[nH]c12` (centres unmarked) [compound 852], the IC50 turned out to be 100 nM on SETD2(1434-1711) and 1000 nM in the experiment on H3K36me3 in A549 cells.
For `Cc1cc2ncc(CN(C)C)n2cc1NC(=O)c1cc2cccc(C)c2[nH]1` [compound 551] the same measures were 6700 nM and above 25000 nM.
On to `Cc1ccc(F)c2cc(C(=O)Nc3cc(F)cc(N4CCC(N5CCCC5=O)C4)c3)[nH]c12` (centres unmarked) [compound 18], for which the IC50 on SETD2(1434-1711) amounted to 8 nM; with H3K36me3 in A549 cells it was 60 nM.
As for `Cc1cccc2cc(C(=O)NCc3cccc4ccnn34)[nH]c12` [compound 570], the figures for the IC50 at SETD2(1434-1711) and with H3K36me3 in A549 cells (Homo sapiens) were 15000 nM and above 25000 nM, respectively.
Take `Cc1cc(C(=O)N2CCNCC2)ccc1C(NC(=O)c1cc2cccc(C)c2[nH]1)C1CC1` (centres unmarked) [compound 577]: the IC50 on SETD2(1434-1711) was 21800 nM; in the experiment with H3K36me3 in A549 cells (Homo sapiens), above 25000 nM.
With `Cc1ccc(F)c2cc(C(=O)N[C@@H]3CCCC(N4CCNC(=O)CC4)C3)[nH]c12` (some centres unmarked) [compound 893], the IC50 was found to be 100 nM at SETD2(1434-1711) and 900 nM in the experiment with H3K36me3 in A549 cells (Homo sapiens).
For `Cc1ccc(F)c2cc(C(=O)N[C@@H]3CCCC(N4CCC5(CCC(=O)N5)CC4)C3)[nH]c12` (some centres unmarked) [compound 894] the same measures were 30 nM and 1400 nM.
As to `Cc1ccc(F)c2cc(C(=O)Nc3cccc(N4CCn5cnnc5C4)c3)[nH]c12` [compound 328], the IC50 at SETD2(1434-1711) is 40 nM; with H3K36me3 in A549 cells (Homo sapiens), 1600 nM.
In the case of `CCC1CN(c2cccc(NC(=O)c3cc4c(F)ccc(C)c4[nH]3)c2)CCN1C(C)=O` (centres unmarked) [compound 71], the IC50 at SETD2(1434-1711) is 40 nM; in the experiment with H3K36me3 in A549 cells, 200 nM.
With `COCC1(COC)CCN(c2cccc(NC(=O)c3cc4c(F)ccc(C)c4[nH]3)c2)CC1` [compound 173], the figures for the IC50 on SETD2(1434-1711) and with H3K36me3 in A549 cells (Homo sapiens) were 70 nM and 300 nM, respectively.
For `CC(=O)N1CCN([C@H]2CCC[C@@H](NC(=O)c3cc4c(F)ccc(C)c4[nH]3)C2)CC1C` (some centres unmarked) [compound 906] the same measures were 10 nM and 10 nM.
Take `CC(=O)N1CC2CCC(C1)N2C1CCCC(NC(=O)c2cc3c(F)ccc(C)c3[nH]2)C1` (centres unmarked) [compound 952]: the IC50 at SETD2(1434-1711) turned out to be 40 nM; with H3K36me3 in A549 cells, 400 nM.
For `Cc1ccc(F)c2cc(C(=O)N[C@@H]3CCC[C@@H](N4CCC(=O)N(C)CC4)C3)[nH]c12` [compound 945] the same measures were 100 nM and above 2000 nM.
As for `Cc1ccc(F)c2cc(C(=O)NC3CCCC(N4CCN5C(=O)COCC5C4)C3)[nH]c12` (centres unmarked) [compound 1139], the IC50 is 500 nM at SETD2(1434-1711) and 1700 nM with H3K36me3 in A549 cells.
Turning to `Cc1ccc(F)c2cc(C(=O)N[C@H]3CCC[C@H](c4cccnc4)C3)[nH]c12` [compound 904], the IC50 was 8100 nM at SETD2(1434-1711) and above 2000 nM with H3K36me3 in A549 cells (Homo sapiens).
For `Cc1ccc(F)c2cc(C(=O)NC(c3nccc4ccccc34)C3CC3)[nH]c12` (centres unmarked) [Cpd. No. 507, N-(cyclopropyl(isoquinolin-1-yl)methyl)-4-fluoro-7-methyl-1H-indole-2-carboxamide] the same measures were 1100 nM and 15100 nM.
As for `Cc1ccc(F)c2cc(C(=O)Nc3cccc(-c4ncon4)c3)[nH]c12` [compound 249], the IC50 at SETD2(1434-1711) is 200 nM; in the experiment on H3K36me3 in A549 cells (Homo sapiens), 600 nM.
For `Cc1ccc(F)c2cc(C(=O)Nc3cc(F)cc(N4CCCN(C)C(=O)C4)c3)[nH]c12` [compound 183], the IC50 at SETD2(1434-1711) was determined as 90 nM; with H3K36me3 in A549 cells (Homo sapiens), 400 nM.
Take `Cc1ccc(F)c2cc(C(=O)N[C@@H]3CCC[C@H](N4CCC5(CC4)CNC(=O)N5)C3)[nH]c12` [compound 940]: the results for the IC50 on SETD2(1434-1711) and with H3K36me3 in A549 cells (Homo sapiens) were 20 nM and above 2000 nM, respectively.
Turning to `Cc1ccc(F)c2cc(C(=O)Nc3cccc(-c4n[nH]c(=O)[nH]4)c3)[nH]c12` [compound 532], the IC50 on SETD2(1434-1711) was 200 nM; in the experiment with H3K36me3 in A549 cells, above 25000 nM.
For `Cc1ccc(F)c2cc(C(=O)NC3C(=O)NCc4ccccc43)[nH]c12` (centres unmarked) [compound 458], the IC50 at SETD2(1434-1711) turned out to be 2200 nM; with H3K36me3 in A549 cells (Homo sapiens), 6200 nM.
`Cc1ccc(F)c2cc(C(=O)Nc3cc(N4CCN(C)CC4)c4nccn4c3)[nH]c12` [compound 338]: the IC50 was 100 nM on SETD2(1434-1711) and 1700 nM in the experiment on H3K36me3 in A549 cells (Homo sapiens).
For the molecule `CC(=O)N1CC2(C1)CN([C@@H]1CCC[C@@H](NC(=O)c3cc4c(F)ccc(C)c4[nH]3)C1)C2` [compound 889], the results for the IC50 on SETD2(1434-1711) and in the experiment on H3K36me3 in A549 cells (Homo sapiens) were 2500 nM and above 2000 nM, respectively.
Take `Cc1ccc(F)c2cc(C(=O)NC3CCCC(N4CCN5C(=O)OCC5C4)C3)[nH]c12` (centres unmarked) [compound 1111]: the figures for the IC50 on SETD2(1434-1711) and in the experiment on H3K36me3 in A549 cells were 20 nM and 70 nM, respectively.
Consider `Cc1ccc(F)c2cc(C(=O)N[C@@H]3CCC[C@H](c4noc(CN(C)C)n4)C3)[nH]c12` [compound 1014], for which the IC50 at SETD2(1434-1711) came out at 200 nM; in the experiment on H3K36me3 in A549 cells (Homo sapiens) it was 700 nM.
`NCCC(=O)NC1CCC(NC(=O)c2cc3cccc(Br)c3[nH]2)CC1` (centres unmarked) [compound 553]: the IC50 at SETD2(1434-1711) was 8300 nM; in the experiment with H3K36me3 in A549 cells it was above 25000 nM.
For `CC(=O)N1C2CCC1CN(C1CCCC(NC(=O)c3cc4c(F)ccc(C)c4[nH]3)C1)C2` (centres unmarked) [compound 926] the same measures were 20 nM and 100 nM.
In the case of `Cc1ccc(F)c2cc(C(=O)N[C@@H]3CCC[C@H](N4CCN(C(=O)N5CCOCC5)CC4)C3)[nH]c12` [compound 828], the results for the IC50 on SETD2(1434-1711) and in the experiment on H3K36me3 in A549 cells were 20 nM and 40 nM, respectively.
As for `Cc1ccc(F)c2cc(C(=O)Nc3cc(C#N)cc(N4CCC(N(C)C)CC4)c3)[nH]c12` [compound 345], the IC50 on SETD2(1434-1711) worked out at 60 nM; with H3K36me3 in A549 cells (Homo sapiens), 1800 nM.
For `Cc1cccnc1C(Cc1cnn(CC2CC2)c1)NC(=O)c1cc2cccc(C)c2[nH]1` (centres unmarked) [compound 175] the same measures were 70 nM and 300 nM.
For the molecule `Cc1ccc(F)c2cc(C(=O)Nc3cccc(C4CCCN4)c3)[nH]c12` (centres unmarked) [compound 425], the IC50 at SETD2(1434-1711) was found to be 300 nM; with H3K36me3 in A549 cells, 3900 nM.
Consider `Cc1ccc(F)c2cc(C(=O)Nc3cc(F)cc(N4CCN(C(=O)N(C)C)CC4)c3)[nH]c12` [compound 25], for which the values for the IC50 at SETD2(1434-1711) and in the experiment with H3K36me3 in A549 cells were 10 nM and 70 nM, respectively.
In the case of `Cc1cccnc1C(Cc1cn(CC2CC2)cn1)NC(=O)c1cc2c(F)ccc(C)c2[nH]1` (centres unmarked) [compound 356], the IC50 on SETD2(1434-1711) was 600 nM; in the experiment on H3K36me3 in A549 cells (Homo sapiens), above 2000 nM.
For `Cc1ccc(F)c2cc(C(=O)Nc3cc(F)cc([C@H]4CC[C@@H](N5CCOCC5)CC4)c3)[nH]c12` [compound 35] the same measures were 6 nM and 80 nM.
For the molecule `CCc1cccc2cc(C(=O)NC(CCC(=O)N3CCOCC3)c3ncccc3C)[nH]c12` (centres unmarked) [compound 464], the values for the IC50 at SETD2(1434-1711) and in the experiment on H3K36me3 in A549 cells were 8400 nM and 6600 nM, respectively.
Take `Cc1cccnc1C(Cc1ccccc1)NC(=O)c1cc2cccc(C)c2[nH]1` (centres unmarked) [compound 408]: the values for the IC50 at SETD2(1434-1711) and in the experiment on H3K36me3 in A549 cells (Homo sapiens) were 400 nM and 2900 nM, respectively.
Take `Cc1ccc(F)c2cc(C(=O)Nc3cccc(N4CCN(C(=O)c5cccnc5)CC4)c3)[nH]c12` [compound 49]: the IC50 was 30 nM at SETD2(1434-1711) and 100 nM in the experiment on H3K36me3 in A549 cells.
For `Cc1cccc2cc(C(=O)Nc3ccc4ccc(C(=O)N5CCN(C)CC5)cc4c3)[nH]c12` [compound 448] the same measures were 900 nM and 5500 nM.
For `Cc1ccc(F)c2cc(C(=O)Nc3cccc(-c4c[nH]cn4)c3)[nH]c12` [compound 337] the same measures were 400 nM and 1600 nM.
Regarding `Cc1ccc(F)c2cc(C(=O)Nc3cccc(N4CCCC(N(C)C)C4)c3)[nH]c12` (centres unmarked) [compound 335], the IC50 was 80 nM on SETD2(1434-1711) and 1600 nM in the experiment with H3K36me3 in A549 cells (Homo sapiens).
